Assay results: patent US11827663B2, “Use of UAP inhibitors to inhibit flux through the hexosamine biosynthetic pathway” (The Johns Hopkins University, priority 2014, dated 2023)
Where two headings read alike, the source gives them in different places.

Key:
Type in all cases: cell-based
PANC-1 cells = assay: Cell count / cell proliferation assay in PANC-1 cells; details: for IC50: cells counted after 48 hours incubation, normalized to controls, read-out: Estimated IC50 values, PANC-1; for effect on PANC-1 cell numbers / proliferation: in words
Experimental: (§1) FIGS. 5A and 5B show the results of cell toxicity experiments that were conducted on SW1990 and PANC-1 cells with the analogs indicated. Cells were counted after incubation with each analog for 48 hours. Cell counts were then normalized to controls, data was log transformed, and IC50 values were calculated. […]
(§2) Cells were incubated at a range of concentrations of the UAP inhibitors (typically at 0, 10, 25, 50, 100, and 150 μM) and the number of cells were quantified, typically by automated counting (e.g., with a Coulter Counter Z2 instrument) after 1, 2, 3, or 5 days of exposure.

SW1990 cells = assay: Cell count / cell proliferation assay in SW1990 cells; details: for IC50: cells counted after 48 hours incubation, normalized to controls, read-out: Estimated IC50 values, SW1990; for effect on SW1990 cell numbers / proliferation: in words
Experimental: FIG. 3 depicts the result of cell count assays after two days of incubation with an exemplary compound, Ac4Glc2Bz. The cells treated with the compound are, respectively, SW1990 and PANC-1, which are pancreatic cancer cell lines. Meanwhile, control samples were treated with solvent vehicle of 2.5 μL DMSO per 1 mL of medium.
as §1, §2

[1] = system: primary human adipose stem cells (hASCs); assay: Cell count assay in control cells (human ASCs); details: Homo sapiens, 48 h; two days of exposure; 300 is the highest concentration tested
Text: FIG. 4A and FIG. 4B depict histogram results of cell count assays after two days of exposure to each analog in cancer cell lines (SW1990 and PANC-1) and in control cells (human ASCs). […] In all cases, IC50 values were greater than 300 which is the highest concentration tested, for the ACSs, while the Ac4Glc2Bz analogs and Ac4Gal2Bz analogs were effective to reduce cell numbers in both cancer cell lines.

For CC(=O)OCC1OC(O)[C@@H](NC(=O)c2ccccc2)[C@@H](OC(C)=O)[C@@H]1OC(C)=O (stereo partly shown) [3,4,6-O—Ac3Glc2Bz], the IC50 (PANC-1 cells) was 76.1 ± 1.6 µM, the IC50 (SW1990 cells) was 37.1 ± 1.8 µM and the “effect on SW1990 cell numbers / proliferation” value (SW1990 cells) was “remarkable inhibition”.

With CC(=O)OC[C@H]1OC(OC(C)=O)[C@H](NC(=O)c2ccccc2O)[C@@H](OC(C)=O)[C@@H]1OC(C)=O (stereo partly shown) [Ac4Glc2NBz-2-OH] the IC50 (PANC-1 cells) was 49.9 ± 1.3 µM, the “effect on PANC-1 cell numbers / proliferation” value (PANC-1 cells) was “consistently reduced cell numbers” and the IC50 (SW1990 cells) was 140.3 ± 1.4 µM. For the same compound, the “effect on SW1990 cell numbers / proliferation” value (SW1990 cells) was “consistently reduced cell numbers”.

With CC(=O)OCC1OC(OC(C)=O)[C@@H](NC(=O)c2ccccc2)[C@@H](OC(C)=O)[C@H]1OC(C)=O (stereo partly shown) [Ac4Gal2Bz] the IC50 (PANC-1 cells; Homo sapiens, PANC-1) was 107 ± 1.1 µM, the IC50 (SW1990 cells; Homo sapiens, SW1990) was 39.1 ± 2.2 µM and the “effect on SW1990 cell numbers / proliferation” value (SW1990 cells) was “remarkable inhibition”. It also gave an IC50 [1] of over 300 µM.

CC(=O)OC1OC(CO)C(OC(C)=O)C(OC(C)=O)C1NC(=O)c1ccccc1 (stereo not shown) [1,3,4-O-Ac3Glc2Bz] was tested, and the “effect on PANC-1 cell numbers / proliferation” value (PANC-1 cells) was “consistently reduced cell numbers” and the “effect on SW1990 cell numbers / proliferation” value (SW1990 cells) was “consistently reduced cell numbers”.

In the case of CC(=O)OCC1OC(OC(C)=O)[C@@H](NC(=O)C2CCCCC2)[C@@H](OC(C)=O)[C@H]1OC(C)=O (stereo partly shown) [Ac4GlcNCyx], the IC50 (PANC-1 cells; Homo sapiens, PANC-1) is reported as 84.1 ± 1.5 µM and the IC50 (SW1990 cells; Homo sapiens, SW1990) is reported as 160.9 ± 1.4 µM.

For CC(=O)OCC1OC(OC(C)=O)[C@H](NC(=O)c2ccccc2)[C@@H](OC(C)=O)[C@H]1OC(C)=O (stereo partly shown) [Ac4Man2Bz], the IC50 (PANC-1 cells; Homo sapiens, PANC-1) was 100 ± 1.8 µM, the “effect on PANC-1 cell numbers / proliferation” value (PANC-1 cells) was “substantially low effect” and the IC50 (SW1990 cells; Homo sapiens, SW1990) was 148 ± 1.5 µM. For the same compound, the “effect on SW1990 cell numbers / proliferation” value (SW1990 cells) was “substantially low effect”.
